What follows are compounds tested on 3T3-L1 (assay: Antidiabetic activity in mouse 3T3L1 cells assessed as […] from cell culture medium using 450 mg/dL D-glucose at 30 ug/mL after 24 hrs (reference value: 310 +/- 4 mg/dl)).
Type: functional
With `O=C(/C=C/c1ccccc1)c1cc(Cl)ccc1O` the Activity was 236 mg/dL. Work on `O=C(/C=C/c1cccc(OCc2ccccc2)c1)c1cccc(I)c1` yielded an Activity of 238 mg/dL. With `COc1ccc(/C=C/C(=O)c2ccccc2Br)cc1` the Activity was 230 mg/dL. `COc1cccc(/C=C/C(=O)c2cccc(Cl)c2)c1` was tested, and the Activity was 255 mg/dL. `COc1ccc(/C=C/C(=O)c2cccc(Cl)c2)cc1` was tested, and the Activity was 287 mg/dL. With `COc1ccc(/C=C/C(=O)c2ccccc2Cl)cc1` the Activity was 234 mg/dL. `COc1ccc(/C=C/C(=O)c2ccccc2I)cc1` showed an Activity of 210 mg/dL. `O=C(/C=C/c1ccccc1)c1ccccc1I` was tested, and the Activity was 223 mg/dL. In the case of `COc1cccc(/C=C/C(=O)c2ccccc2I)c1`, the Activity was 210 mg/dL.

Source: ChEMBL document CHEMBL2029201, “Synthesis of chalcone derivatives as potential anti-diabetic agents” (2012)
